The test concerns the target Protein cereblon/Tyrosine-protein kinase BTK (Homo sapiens, UniProt Q06187+Q96SW2). Nature of the test: Protac activity at E3 ubiquitin ligase/BTK in human Ramos cells assessed as induction of BTK degradation measured after 16 hrs by ELISA. The class given is cell-based.
Sequence of Protein cereblon/Tyrosine-protein kinase BTK (Q06187 whole entry): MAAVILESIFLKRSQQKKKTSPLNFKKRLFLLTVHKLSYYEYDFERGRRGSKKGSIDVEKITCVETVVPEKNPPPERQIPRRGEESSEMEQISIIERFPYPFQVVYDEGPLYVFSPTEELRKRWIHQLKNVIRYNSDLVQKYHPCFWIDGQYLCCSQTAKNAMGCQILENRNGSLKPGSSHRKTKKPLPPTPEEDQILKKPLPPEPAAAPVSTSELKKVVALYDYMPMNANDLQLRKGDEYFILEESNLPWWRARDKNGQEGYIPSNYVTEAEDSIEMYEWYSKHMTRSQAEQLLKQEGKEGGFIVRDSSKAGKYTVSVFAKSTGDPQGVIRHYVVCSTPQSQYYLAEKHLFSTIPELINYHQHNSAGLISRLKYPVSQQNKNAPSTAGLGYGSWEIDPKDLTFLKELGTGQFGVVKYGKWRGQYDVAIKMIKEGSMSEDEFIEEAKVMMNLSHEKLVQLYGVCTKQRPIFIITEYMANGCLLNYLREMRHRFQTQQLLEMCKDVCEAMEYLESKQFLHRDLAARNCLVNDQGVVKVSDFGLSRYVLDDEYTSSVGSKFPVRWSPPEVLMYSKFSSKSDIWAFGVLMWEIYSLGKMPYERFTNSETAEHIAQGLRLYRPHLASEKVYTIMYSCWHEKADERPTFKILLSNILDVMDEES
Sequence of Protein cereblon/Tyrosine-protein kinase BTK (Q96SW2 whole entry): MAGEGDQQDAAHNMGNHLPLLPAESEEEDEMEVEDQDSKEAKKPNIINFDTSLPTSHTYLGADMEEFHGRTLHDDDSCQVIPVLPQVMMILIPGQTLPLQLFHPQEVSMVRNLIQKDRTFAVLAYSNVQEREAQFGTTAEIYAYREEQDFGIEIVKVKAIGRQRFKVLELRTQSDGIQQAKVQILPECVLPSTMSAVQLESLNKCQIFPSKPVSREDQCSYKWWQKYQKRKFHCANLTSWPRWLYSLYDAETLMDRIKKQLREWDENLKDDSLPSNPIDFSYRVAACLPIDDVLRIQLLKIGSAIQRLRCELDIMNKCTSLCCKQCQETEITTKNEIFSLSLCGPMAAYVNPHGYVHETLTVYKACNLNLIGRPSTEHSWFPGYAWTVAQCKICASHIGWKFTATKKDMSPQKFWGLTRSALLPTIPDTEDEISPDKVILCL
Turning to `NC(=O)c1c(-c2ccc(Oc3ccccc3)cc2)nn2c1NCC[C@H]2C1CCN(C(=O)CCN2CCN(C(=O)CNc3ccc4c(c3)C(=O)N(C3CCC(=O)NC3=O)C4=O)CC2)CC1` (some centres not stated), the DC50 is 2.9 nM.
As for `NC(=O)c1c(-c2ccc(Oc3ccccc3)cc2)nn2c1NCC[C@H]2C1CCN(C(=O)c2cn(CCOCCOCCOCCOCCNc3cccc4c3C(=O)N(C3CCC(=O)NC3=O)C4=O)nn2)CC1` (some centres not stated), the figure is 68 nM.
With `NC(=O)c1c(-c2ccc(Oc3ccccc3)cc2)nn2c1NCC[C@H]2C1CCN(C(=O)c2cn(CCOCCOCCOCCOCCOCCNc3ccc4c(c3)C(=O)N(C3CCC(=O)NC3=O)C4=O)nn2)CC1` (some centres not stated), the DC50 came out at 78 nM.
`NC(=O)c1c(-c2ccc(Oc3ccccc3)cc2)nn2c1NCC[C@H]2C1CCN(C(=O)CCC2CCC(N3CCN(c4ccc5c(c4)C(=O)N(C4CCC(=O)NC4=O)C5=O)CC3)CC2)CC1` (some centres not stated): the DC50 amounted to 17 nM.
The same measure for `NC(=O)c1c(-c2ccc(Oc3ccccc3)cc2)nn2c1NCC[C@H]2C1CCN(C(=O)c2cn(CCOCCOCCOCCOCCOCCOCCNc3cccc4c3C(=O)N(C3CCC(=O)NC3=O)C4=O)nn2)CC1` (some centres not stated): 107 nM; for `NC(=O)c1c(-c2ccc(Oc3ccccc3)cc2)nn2c1NCC[C@H]2C1CCN(C(=O)c2cn(CCOCCOCCOCCOCCOCCNc3cccc4c3C(=O)N(C3CCC(=O)NC3=O)C4=O)nn2)CC1` (some centres not stated): 78 nM; for `CN(CCC(=O)N1CCC([C@@H]2CCNc3c(C(N)=O)c(-c4ccc(Oc5ccccc5)cc4)nn32)CC1)CC1CCN(c2ccc3c(c2)C(=O)N(C2CCC(=O)NC2=O)C3=O)CC1` (some centres not stated): 35 nM.
For the molecule `CN(CC1CCN(C(=O)c2ccc(N3CCC(=O)NC3=O)cc2)CC1)C1CC(C(=O)N2CCC([C@@H]3CCNc4c(C(N)=O)c(-c5ccc(Oc6ccccc6)cc5)nn43)CC2)C1` (some centres not stated), the DC50 stood at 7.2 nM.
On to `NC(=O)c1c(-c2ccc(Oc3ccccc3)cc2)nn2c1NCC[C@H]2C1CCN(C(=O)CCc2ccc(N3CCN(c4ccc5c(c4)C(=O)N(C4CCC(=O)NC4=O)C5=O)CC3)cc2)CC1` (some centres not stated), for which the half-maximal degradation concentration (DC50) is 74 nM.
The same measure for `NC(=O)c1c(-c2ccc(Oc3ccccc3)cc2)nn2c1NCC[C@H]2C1CCN(C(=O)c2cn(CCOCCOCC(=O)Nc3ccc4c(c3)C(=O)N(C3CCC(=O)NC3=O)C4=O)nn2)CC1` (some centres not stated): 34 nM; for `NC(=O)c1c(-c2ccc(Oc3ccccc3)cc2)nn2c1NCC[C@H]2C1CCN(C(=O)CCCc2ccc(NC(=O)CNc3ccc4c(c3)C(=O)N(C3CCC(=O)NC3=O)C4=O)cc2)CC1` (some centres not stated): 28 nM.
The same measure for `NC(=O)c1c(-c2ccc(Oc3ccccc3)cc2)nn2c1NCC[C@H]2C1CCN(C(=O)CCCN2CCN(C(=O)CNc3ccc4c(c3)C(=O)N(C3CCC(=O)NC3=O)C4=O)CC2)CC1` (some centres not stated): 35 nM.

The record behind these values is ChEMBL document CHEMBL4706737, “PROTAC-Mediated Degradation of Bruton's Tyrosine Kinase as a Therapeutic Strategy for Cancer” (ACS Med Chem Lett, 2021).
